Read-outs that look alike come from different tables or passages of the source.

Data set [1] concerns STAT1 mRNA in U937 and HL60 leukemia cells. The data set is described as follows: Gene expression by Q-RT-PCR, U937 and HL60. The format is cell-based, human. How it is done: Gene expression changes were evaluated in OCI AML2, 0937, HL60, DU145 and PPC-1 cells by real-time Q-RT-PCRas described previously^15, 47. The expression level of STAT1A, STAT1B, TRIM22, OAS1 and IFIT3 before and after incubation of leukemia cells with ivermectin was evaluated.

The subject of data set [2] is DU145 and PPC-1 cells; normal hematopoietic cells. The data set can be described thus: Reactive oxygen species, Carboxy-H2DCFDA staining, resistant cells. The format is cell-based, human.
Data set [3] has as its system primary AML samples. The data set is described as follows: Clonogenic (methylcellulose colony forming) assay, primary AML. The format is cell-based, human. Particulars: ivermectin 6 μM; in 3/6 primary AML samples. How it is done: To assess clonogenic growth, primary AML cells or granulocyte colony-stimulating factor (G-CSF) mobilized PBSCs (4×10^5/mL) were treated with IVM or buffer control for 24 hours. After treatment, cells were washed and 10^5 cell/mL were plated in duplicate in MethoCult GF H4434 medium (StemCell Technologies, Vancouver, BC) containing 1% methycellulose in IMDM, 30% FCS, 1% bovine serum albumin, 3 U/mL of recombinant human erythropoietin, 10^−4 M of 2-mercaptoethanol, 2 mM of L-glutamine, 50 ng/mL of recombinant human stem cell factor, 10 ng/mL of GM-CSF, and 10 ng/mL of rh IL-3. Alternatively, primary cells were plated directly into MethoCult GF H4434 medium with ivermectin. Seven days (AML samples) or 14 days (normal PBCS) after plating, the number of colonies containing 10 or more cells for AML or over 100 cells for normal samples was counted as previously described.^14
Ivermectin was also evaluated in clonogenic assays in primary normal hematopoietic and AML cells. Ivermectin (6 μM) had minimal effects on the clonogenic growth of normal hematopoetic cells (n=3) with <15% reduction in clonogenic growth. In contrast, ivermectin reduced clonogenic growth by ≧40% in 3/6 primary AML samples (FIG. 1D). Similar effects were noted when primary cells were directly plated into clonogenic assays with ivermectin (FIG. 1G).

Data set [4] concerns OCI-AML2 cells. The data set is described as follows: Plasma membrane potential, DiBAC4(3) staining, OCI-AML2. The format is cell-based, human. Particulars: for plasma membrane polarization: 5 hours. The protocol: Plasma membrane potential was measured as previously described.^18 Briefly, cells treated with IVM or buffer control in RPM1, chloride replete medium (140 mM sodium chloride, 5 mM potassium chloride, 1 mM magnesium sulfate, 1.8 mM calcium acetate, 10 mM glucose, 10 mM HEPES and 0.1% (wt/v) BSA), or chloride free media where equimolar gluconate salts of sodium and potassium replaced the sodium chloride in the chloride replete medium. After incubation, cells were stained with DiBAC4(3) (final concentration 30 nM) and fluorescence determined by flow cytometry (BD FACS Canto, Becton Dickinson, San Jose, Calif.) (excitation=488 nm, emission=516 nm) Analysis was conducted using FACSDiva Software (BD Biosciences). Calibration curves were prepared using phosphate buffers with varying potassium ion concentrations as previously described.^18

Data set [5] has as its system OCI-AML2 cells. The data set is described as follows: Cell death, viability and cell cycle in OCI-AML2 cells. The format is cell-based, human. How it is done:
(§1) Cell growth and viability was assessed by the MTS assay (Promega, Madison, Wis.) according to the manufacturer's instructions and as previously described.^12 Cell death was measured by Annexin V-fluoroscein isothiocyanate (FITC) and Propidium Iodide (PI; Biovision Research Products, Mountain View, Calif.) staining and flow cytometry according to the manufacturer's instructions and as previously described.^13 To identify CD34+ cells, a normal PBSC sample was co-stained with PE-anti-CD34+ (Beckman Coulter, Marseille France), and APC-anti-CD45 (Becton Dickenson, San Jose Calif.).
Cell cycle analysis was performed as described previously.^15 Briefly, cells were harvested, washed with cold PBS, and resuspended in 80% cold ethanol. Cells were then treated with 100 ng/mL DNase-free RNase A (Invitrogen) at 37° C. for 30 min, washed with cold PBS, and resuspended in PBS with 50 μg/mL propidium iodide. DNA content was analyzed by flow cytometry (FACSCalibur; Becton Dickinson). The percentage of cells in each phase of the cell cycle was calculated with FlowJo version 8.8 (TreeStar, Ashland, Oreg.).

For data set [6] the following is noted: cited from earlier work.
For data set [7], the system named is DU145 prostate cancer cells. The data set is described as follows: Cell death by Annexin V and PI staining in DU145 cells. The format is cell-based, human. Particulars: 24 hours. How it is done:
as §1

For data set [8], the system named is OCI-AML2, K562 and MDAY-D2 leukemia cells in NOD/SCID mice. The data set is described as follows: Mouse models of leukemia, subcutaneous tumors, oral ivermectin. The format is in vivo. The protocol:
MDAY-D2 murine leukemia cells, and K562 and OCI-AML2 human leukemia cells (2.5×10^5) were injected subcutaneously into both flanks of sub-lethally irradiated (3.5 Gy) NOD/SCID mice (Ontario Cancer
Institute, Toronto, ON). Four (OCI-AML2), five (MDAY-D2), or seven (K562) days after injection, once tumors were palpable, mice were then treated daily for 10 days (K562) or treated with 8 doses over 10 days (OCI-AML2) with IVM (3 mg/kg) by oral gavage in water or vehicle control (n=10 per group). […] Tumor volume (tumor length x width^2×0.5236) was measured three times a week using calipers. Fourteen (MDAY-D2), 15 (OCI-AML2) or 17 (K562) days after injection of cells, mice were sacrificed, tumors excised and the volume and weight of the tumors were measured.
Given the effects of IVM as a potential anti-leukemic agent, IVM was evaluated in mouse models of leukemia. Human leukemia (OCI-AML2 and K562) and murine leukemia (MDAY-D2) cells (MDAY-D2, OCI-AML2 and K562) were injected subcutaneously into the flank of NOD/SCID mice. Four (OCI-AML2), five (MDAY-D2), or seven (K562) days after injection, once tumors were palpable, mice were then treated daily for 10 days (K562) or treated with 8 doses over 10 days (OCI-AML2) with IVM (3 mg/kg) by oral gavage in water or vehicle control (n=10 per group). […] Tumor volume and weight was measured over time.

Data set [9] has as its system U937 and TEX leukemia cells; primary AML cells. The data set is described as follows: Reactive oxygen species, Carboxy-H2DCFDA staining, sensitive cells. The class given is cell-based, human.

With ivermectin, the “STAT1 mRNA” value in data set [1] is given as “demonstrated increased STAT1 mRNA”. For the same substance, the ROS generation result is “did not show changes in ROS generation” in data set [2] (DU145 and PPC-1 cells); “not normal hematopoietic cells” in data set [2] (normal hematopoietic cells); “demonstrated increased ROS generation” in [9] (U937 and TEX cells, 2 hours after treatment); “demonstrated increased ROS generation” in data set [9] (primary AML cells). The “reduction in clonogenic growth” value in data set [3] is recorded as at least 40%. Besides, the plasma membrane polarization entry is given as “caused plasma membrane depolarization” in data set [4] (chloride deplete buffer) and “induced plasma membrane hyperpolarization” in data set [4] (chloride replete buffer). Also, the plasma membrane potential result in data set [4] (RPMI medium, as early as after 1 hour of treatment) is on record as “induced membrane hyperpolarization in a dose dependent manner”. In addition, in data set [5] (24 hours of treatment), the cell death result was “induced cell death”. Besides, the cell cycle entry in data set [5] (times and concentrations that preceded cell death, PI DNA content) was “induced G2 cell cycle arrest”. In addition, the adverse effects result is “no serious adverse effects were noted” in data set [6] (healthy volunteers, oral, dose of 120 (~2 mg/kg)) and “no significant adverse effects were reported” in data set [6] (patients with spinal injury, up to 1.6 mg/kg subcutaneously twice weekly for up to 12 weeks). Moreover, in data set [7], the “sensitivity to IVM induced cell death” value is “more resistant to IVM induced cell death”. For the same substance, the tolerability entry in data set [8] (MDAY-D2 mice, dosage escalated 3 to 6 mg/kg) was “well tolerated”. In addition, in data set [8] (oral gavage 3 mg/kg (MDAY-D2 escalated to 6 mg/kg), all 3 models, p<0.05), the “decrease in tumor weight and volume compared to buffer control” value is reported as “up to 70%”. The gross organ toxicity result in data set [8] (oral ivermectin, all 3 models) is “without any gross organ toxicity”.

The record behind these values is US20120225123A1, “Use of Synergistic Combinations of an Avermectin and an Antineoplastic Compounds for the Treatment of Hematological Malignancies” (UNIVERSITY HEALTH NETWORK, priority 2009, published 2012).
